pIC50: −log10 of the molar value. Calls of active or inactive are those of the source. No cut-off for these calls is given here.
What was measured:
KB-V1 = assay: cells; assay type: functional, cell-based; settings: Homo sapiens, KB-V1, 72 h
Description: Cytotoxicity against multidrug resistant human KB-V1 cells assessed as inhibition of cell growth after 72 hrs by MTT assay

HCT-116 [1] = assay: cells; assay type: functional, cell-based; settings: Homo sapiens, HCT-116, 72 h
Description: Cytotoxicity against human HCT-116 p53 mutant cells assessed as inhibition of cell growth after 72 hrs by MTT assay

HCT-116 [2] = assay: cells; assay type: functional, cell-based; settings: Homo sapiens, HCT-116, 72 h; remark: listed apart in the source
Description: Cytotoxicity against wild type human HCT-116 cells assessed as inhibition of cell growth after 72 hrs by MTT assay

518A2 = assay: cells; assay type: functional, cell-based; settings: Homo sapiens, 518A2, 72 h
Description: Cytotoxicity against human 518A2 cells assessed as inhibition of cell growth after 72 hrs by MTT assay

EA.hy 926 [3] = assay: cells; assay type: functional, cell-based; settings: Homo sapiens, EA.hy 926, 72 h
Description: Cytotoxicity against human EA.hy 926 cells assessed as inhibition of cell growth after 72 hrs by MTT assay

Tubulin (Homo sapiens) [4] = biological target: T1, Tubulin (Homo sapiens) (UniProt P68371+Q9H4B7+P0DPH7+P68366+Q13509+Q71U36+P04350+Q3ZCM7+P07437+P68363+Q9BQE3+Q6PEY2+Q13885+Q9BVA1+Q9BUF5); assay: Induction of microtubule cytoskeleton disruption in human EA.hy926 cells at 50 nM assessed as mitotic catastrophe measured after 24 hrs by DAPI staining based fluorescence microscopic analysis; assay type: cell-based; settings: EA.hy 926
Tubulin (Homo sapiens) [5] = biological target: T1, Tubulin (Homo sapiens); assay: Induction of microtubule cytoskeleton disruption in human EA.hy926 cells at 25 nM measured after 24 hrs by DAPI staining based fluorescence microscopic analysis; assay type: cell-based; settings: EA.hy 926
Sus scrofa = species on record: Sus scrofa; assay: Inhibition of porcine brain tubulin polymerization at 10 uM measured at 20 sec interval for 2 hrs by turbidometric method
cells = assay type: ADME, cell-based; settings: Homo sapiens, HDFa, 72 h
Description: Cytotoxicity against human HDfa cells assessed as inhibition of cell growth after 72 hrs by MTT assay

EA.hy 926 [6] = assay: Induction of F-actin cytoskeleton disruption in human EA.hy926 cells at 50 nM assessed as formation of actin stress fibers measured after 3 hrs by DAPI staining based fluorescence microscopic analysis; assay type: cell-based
EA.hy 926 [7] = assay: Cell cycle arrest in human EA.hy926 cells assessed as accumulation at G2/M phase at 25 to 70 uM after 24 hrs by propidium iodide staining based flow cytometric analysis; assay type: functional; settings: dose 25-70 µM
EA.hy 926 [8] = assay: Cell cycle arrest in human EA.hy926 cells assessed as accumulation at sub-G1 phase after 24 hrs by propidium iodide staining based flow cytometric analysis; assay type: functional
[9] = biological target: CDK1/Cyclin A (Homo sapiens) (UniProt P06493+P20248); assay: Inhibition of full length recombinant human CDK1/cyclin A2 expressed in baculovirus infected sf9 cells using histone H1 as substrate incubated for 15 mins in presence of ATP by ADP-Glo assay
EA.hy 926 [10] = assay: Vascular disruptive effect in human EA.hy926 cells at 250 nM incubated for 12 hrs by matrigel-based MTT assay; assay type: functional, cell-based
Chorioallantoic membrane [11] = assay: Vascular disruptive effect in chicken fertilized egg chorioallantoic membrane at 5 nmol incubated for 24 hrs by CAM assay; assay type: functional, tissue-based; settings: Gallus gallus
EA.hy 926 [12] = assay: Antiangiogenic activity in human EA.hy926 cells assessed as reduction in tube formation at 150 nM incubated for 6 hrs by matrigel-based MTT assay; assay type: functional, cell-based
Chorioallantoic membrane [13] = assay: Antiangiogenic activity in chicken fertilized egg chorioallantoic membrane assessed as reduction in tube formation at 5 nmol incubated for 6 to 24 hrs by CAM assay; assay type: functional, tissue-based; settings: Gallus gallus, time 6-24 hrs
Chorioallantoic membrane [14] = assay: Vascular disruptive effect in chicken fertilized egg chorioallantoic membrane at 15 nmol incubated for 24 hrs by CAM assay; assay type: functional, tissue-based; settings: Gallus gallus
Chorioallantoic membrane [15] = assay: Vascular disruptive effect in chicken fertilized egg chorioallantoic membrane at 15 nmol incubated for 6 hrs by CAM assay; assay type: functional, tissue-based; settings: Gallus gallus
Danio rerio [16] = species on record: Danio rerio; assay: Antiangiogenic activity in zebrafish embryo assessed as reduction in SIV at 250 nM incubated for 48 hrs by fluorescence microscopic analysis; assay type: functional; parameters: scale not given: the % may be the effect or the level left
Danio rerio [17] = species on record: Danio rerio; assay: Antiangiogenic activity in zebrafish embryo assessed as reduction in tube formation at 500 nM incubated for 48 hrs by fluorescence microscopic analysis; assay type: functional; parameters: scale not given: the % may be the effect or the level left

Chain of CDK1/Cyclin A (Homo sapiens) (P06493 whole entry, looked up): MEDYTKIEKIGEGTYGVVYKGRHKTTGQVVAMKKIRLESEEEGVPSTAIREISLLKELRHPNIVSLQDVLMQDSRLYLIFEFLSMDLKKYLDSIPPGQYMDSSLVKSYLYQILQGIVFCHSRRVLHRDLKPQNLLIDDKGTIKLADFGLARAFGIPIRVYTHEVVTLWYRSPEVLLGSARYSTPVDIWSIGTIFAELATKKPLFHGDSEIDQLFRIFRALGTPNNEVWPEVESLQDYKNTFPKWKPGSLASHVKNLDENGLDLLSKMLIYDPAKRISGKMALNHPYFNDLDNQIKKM
Chain of CDK1/Cyclin A (Homo sapiens) (P20248 whole entry, looked up): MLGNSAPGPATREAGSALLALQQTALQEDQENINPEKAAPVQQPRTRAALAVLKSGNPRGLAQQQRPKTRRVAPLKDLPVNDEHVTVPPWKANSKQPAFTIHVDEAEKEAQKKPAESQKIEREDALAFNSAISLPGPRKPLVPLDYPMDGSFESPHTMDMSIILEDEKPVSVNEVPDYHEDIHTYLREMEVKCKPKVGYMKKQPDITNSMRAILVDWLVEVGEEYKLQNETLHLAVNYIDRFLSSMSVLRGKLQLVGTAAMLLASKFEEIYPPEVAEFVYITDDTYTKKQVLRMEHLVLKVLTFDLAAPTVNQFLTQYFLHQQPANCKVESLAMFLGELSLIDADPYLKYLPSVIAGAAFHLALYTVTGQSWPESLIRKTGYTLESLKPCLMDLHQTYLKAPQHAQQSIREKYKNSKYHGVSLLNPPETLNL

SMILES	pIC50 (KB-V1)	pIC50 (HCT-116 [1])	pIC50 (HCT-116 [2])	pIC50 (518A2)	pIC50 (EA.hy 926 [3])	other results
COc1cc(-c2nc3sc4c(c3c(=O)[nH]2)CCN(C(C)=O)C4)cc(Br)c1OC	5.55	6.30	6.40	6.30	6.05	
O=c1[nH]c(-c2cc(F)cc(F)c2)nc2sc3c(c12)CCNC3	5.19	5.44	5.16	5.24	5.27	
CCOC(=O)N1CCc2c(sc3nc(-c4cccnc4)[nH]c(=O)c23)C1	4.45	4.41	4.49	4.10	4.00	
COc1cc(-c2nc3sc4c(c3c(=O)[nH]2)CCNC4)cc(OC)c1OC	< 4.00	< 4.00	< 4.00	< 4.00	4.00	
COc1cc(-c2nc3sc4c(c3c(=O)[nH]2)CCCCC4)cc(Cl)c1OC	6.15	6.10	6.52	6.15	6.70	
CCOC(=O)N1CCc2c(sc3nc(-c4cc(I)c(OC)c(OC)c4)[nH]c(=O)c23)C1	7.00	7.00	6.52	7.00	7.00	Activity (Tubulin (Homo sapiens) [4]): Active; Activity (Tubulin (Homo sapiens) [5]): inactive; inhibition (Sus scrofa): Active; pIC50 (cells): 4.88; Activity (EA.hy 926 [6]): Active; Activity (EA.hy 926 [7]): Active; Activity (EA.hy 926 [8]): Dose-dependent effect; inhibition [9]: Active; Activity (EA.hy 926 [10]): Active; Activity (Chorioallantoic membrane [11]): Active; Activity (EA.hy 926 [12]): Active; Activity (Chorioallantoic membrane [13]): Active; Activity (Chorioallantoic membrane [14]): inactive
CCOC(=O)N1CCc2c(sc3nc(-c4ccc(OC)c(O)c4)[nH]c(=O)c23)C1	5.66	5.25	5.74	5.64	5.35	
COc1cc(-c2nc3sc4c(c3c(=O)[nH]2)CCCC4)cc(Br)c1OC	6.52	6.30	6.40	6.52	6.52	
CCOC(=O)N1CCc2c(sc3nc(-c4cc(OC)c(OC)c(OC)c4)[nH]c(=O)c23)C1	6.10	6.30	6.22	6.70	6.70	
COc1cc(-c2nc3sc4c(c3c(=O)[nH]2)CCN(C(C)=O)C4)cc(I)c1OC	6.22	6.40	6.70	6.52	7.00	inhibition (Sus scrofa): Active
COc1cc(-c2nc3sc4c(c3c(=O)[nH]2)CCCCC4)cc(I)c1OC	6.22	6.70	6.52	6.70	6.70	
COc1cc(-c2nc3sc4c(c3c(=O)[nH]2)CCNC4)cc(Cl)c1OC	4.77	4.97	< 4.00	4.79	5.20	
C=CC(=O)N1CCc2c(sc3nc(-c4cc(I)c(OC)c(OC)c4)[nH]c(=O)c23)C1	5.92	6.15	5.70	6.70	6.40	inhibition (Sus scrofa): Active
COc1cc(-c2nc3sc4c(c3c(=O)[nH]2)CCNC4)cc(I)c1OC	5.60	6.10	6.00	5.85	6.00	inhibition (Sus scrofa): Active
COc1cc(-c2nc3sc4c(c3c(=O)[nH]2)CCCCC4)cc(Br)c1OC	6.52	6.52	6.10	6.70	6.52	
COc1ccc(/C=C\c2cc(OC)c(OC)c(OC)c2)cc1O [COMBRETASTATIN A4]	8.40	8.70	8.52	7.70	8.00	Activity (Tubulin (Homo sapiens) [5]): Active; pIC50 (cells): < 4.00; Activity (EA.hy 926 [6]): Active; Activity (EA.hy 926 [8]): Dose-dependent effect; Activity (Chorioallantoic membrane [11]): Active
COc1cc(-c2nc3sc4c(c3c(=O)[nH]2)CCNC4)cc(Br)c1OC	5.70	5.13	4.97	5.03	4.94	
CCOC(=O)N1CCc2c(sc3nc(-c4cc(F)cc(F)c4)[nH]c(=O)c23)C1	5.28	5.38	5.80	5.28	5.40	
CCOC(=O)N1CCc2c(sc3nc(-c4cc(Br)c(OC)c(OC)c4)[nH]c(=O)c23)C1	6.52	6.30	6.40	6.30	6.70	
COc1ccc(-c2nc3sc4c(c3c(=O)[nH]2)CCNC4)cc1	5.17	5.66	5.40	5.42	5.42	
C=CC(=O)N1CCc2c(sc3nc(-c4cc(Br)c(OC)c(OC)c4)[nH]c(=O)c23)C1	5.72	5.34	5.37	6.15	6.05	
COc1c(Br)cc(-c2nc3sc4c(c3c(=O)[nH]2)CCNC4)cc1Br	5.21	5.82	5.82	5.24	6.00	
COc1cc(-c2nc(O)c3c4c(sc3n2)CCCC4)cc(OC)c1OC	6.70	6.52	5.26	6.70	6.40	Activity (Tubulin (Homo sapiens) [4]): Active; Activity (Tubulin (Homo sapiens) [5]): inactive; pIC50 (cells): < 4.00; Activity (EA.hy 926 [6]): inactive

Further lines, with some results ahead:

pIC50 (KB-V1)	pIC50 (HCT-116 [1])	pIC50 (HCT-116 [2])	pIC50 (518A2)	pIC50 (EA.hy 926 [3])	SMILES	other results
5.72	6.70	6.15	6.52	5.92	N#Cc1cccc(-c2nc3sc4c(c3c(=O)[nH]2)CCCC4)c1	
6.15	6.15	6.10	5.62	6.00	COc1c(Br)cc(-c2nc3sc4c(c3c(=O)[nH]2)CCCC4)cc1Br	
7.00	7.00	6.70	7.00	6.70	COc1cc(-c2nc3sc4c(c3c(=O)[nH]2)CCCC4)cc(I)c1OC	Activity (Tubulin (Homo sapiens) [4]): Active; Activity (Tubulin (Homo sapiens) [5]): inactive; inhibition (Sus scrofa): Active; pIC50 (cells): < 4.00; Activity (EA.hy 926 [6]): Active; Activity (EA.hy 926 [7]): Active; Activity (EA.hy 926 [8]): Dose-dependent effect; inhibition [9]: Active; Activity (EA.hy 926 [10]): Active; Activity (Chorioallantoic membrane [15]): Active; Activity (EA.hy 926 [12]): Active; Activity (Chorioallantoic membrane [13]): Active; Activity (Danio rerio [16]): 18%; Activity (Danio rerio [17]): 28%
< 4.00	< 4.00	< 4.00	< 4.00	< 4.00	O=c1[nH]c(-c2cc(F)cc(F)c2)nc2sc3c(c12)CCCCC3	
< 4.00	< 4.00	< 4.00	< 4.00	< 4.00	O=c1[nH]c(-c2cccc(Br)c2)nc2sc3c(c12)CCCCC3	
5.15	5.37	5.31	5.39	4.90	CCOC(=O)N1CCc2c(sc3nc(-c4cccc(C#N)c4)[nH]c(=O)c23)C1	
4.74	6.00	5.42	5.03	4.88	N#Cc1cccc(-c2nc3sc4c(c3c(=O)[nH]2)CCCCC4)c1	
5.66	5.85	5.80	5.77	5.80	O=c1[nH]c(-c2cccc(Br)c2)nc2sc3c(c12)CCNC3	
5.85	6.00	6.05	6.40	6.00	COc1c(Br)cc(-c2nc3sc4c(c3c(=O)[nH]2)CCCCC4)cc1Br	
6.52	6.00	6.30	6.40	6.40	COc1cc(-c2nc3sc4c(c3c(=O)[nH]2)CCCC4)cc(Cl)c1OC	
